What all share (type): biochemical
Test [1] addresses T1, VEGFR2 (Homo sapiens, UniProt P35968).
T1 construct: purchased Life technology
Nature of the test: Z'-LYTE in vitro enzyme activity assay, VEGFR2. Conditions: 100 μM ATP, 60 minutes, room temperature; read-out: IC50 detected by Z'-LYTE, VEGFR2. On the procedure:
(§1) The enzyme activity was measured by Z′-LYTE™ Detection Kinase Assay. The IC50 value of the compounds was used as an index to evaluate the inhibitory effect of the compounds on VEGFR2, FGFR1 and PDGFRB.
(§2) Recombinant human VEGFR2 and FGFR1 proteases were purchased from Life technology, PDGFRB Protease was purchased from Millipore.
(§3) Z-LYTE™ Kit Tyr1 and Tyr4 were purchased from Life technology. Multi-microplate reader, Envision (PerkinElmer) read board was used.
(§4) The test compounds were diluted 3 times with a concentration gradient, the final concentration was from 10 μM to 0.17 nM with a total of 11 concentrations, and each concentration had two parallel holes; the content of DMSO in the assay was 1%.
3 nM VEGFR2 protein kinase, 2 μM Tyr1 peptide, 100 μM ATP, 50 mM HEPES (pH 7.5), 10 mM MgCl2, 1 mM EGTA, 0.01% BRIJ-35. The detector plate was Black Proxiplate 384-Plus plate (PerkinElmer), the reaction was performed at room temperature for 60 minutes, and the reaction system was 10 μl.
(§5) The reaction was stopped by adding 5 μl of DV reagent B (1:128) to the kinase reaction solution and incubated at 23° C. for 60 minutes. The Envision instrument was used to read the plate.
(§6) The data was converted to phosphorylation rate and inhibition rate and the 4 parameter curve fitting (Model 205 in XLFIT5, iDBS) was used to get IC50 data of the compounds.

The target of test [2] is T2, FGFR1 (Homo sapiens, UniProt P11362).
T2 construct: purchased Life technology
Nature of the test: Z'-LYTE in vitro enzyme activity assay, FGFR1. Conditions: 25 μM ATP, 60 minutes, room temperature; read-out: IC50 detected by Z'-LYTE, FGFR1. As to the method:
as §1, §2, §3, §4
1 nM FGFR1 protein kinase, 2 μM Tyr4 peptide, 25 μM ATP, 50 mM HEPES (pH 7.5), 10 mM MgCl2, 1 mM EGTA, 0.01% BRIJ-35, 2 mM MnCl2, 1 mM DTT. The detector plate was Black Proxiplate 384-Plus plate (PerkinElmer), the reaction was performed at room temperature for 60 minutes, and the reaction system was 10 μl.
as §5, §6

Test [3] addresses T3, PDGFRB (Homo sapiens, UniProt P09619).
T3 construct: purchased Millipore
Nature of the test: Z'-LYTE in vitro enzyme activity assay, PDGFRB. Conditions: 100 μM ATP, 60 minutes, room temperature; read-out: IC50 detected by Z'-LYTE, PDGFRB. As to the method: as §1, §2, §3, §4
40 nM PDGFRB protein kinase, 2 μM Tyr4 peptide, 100 μM ATP, 50 mM HEPES (pH 7.5), 10 mM MgCl2, 1 mM EGTA, 0.01% BRIJ-35, 2 mM MnCl2, 1 mM DTT. The detector plate was Black Proxiplate 384-Plus plate (PerkinElmer), the reaction was performed at room temperature for 60 minutes, and the reaction system was 10 μl.
as §5, §6

The source of these data is US10654808B2, “Tyrosine kinase inhibitor and pharmaceutical composition comprising same” (GUANGDONG RAYNOVENT BIOTECH CO., LTD., priority 2015, dated 2020).

For orientation: IC50 means the point on the concentration scale where inhibition reaches its midpoint.

T2 sequence (P11362 22-822): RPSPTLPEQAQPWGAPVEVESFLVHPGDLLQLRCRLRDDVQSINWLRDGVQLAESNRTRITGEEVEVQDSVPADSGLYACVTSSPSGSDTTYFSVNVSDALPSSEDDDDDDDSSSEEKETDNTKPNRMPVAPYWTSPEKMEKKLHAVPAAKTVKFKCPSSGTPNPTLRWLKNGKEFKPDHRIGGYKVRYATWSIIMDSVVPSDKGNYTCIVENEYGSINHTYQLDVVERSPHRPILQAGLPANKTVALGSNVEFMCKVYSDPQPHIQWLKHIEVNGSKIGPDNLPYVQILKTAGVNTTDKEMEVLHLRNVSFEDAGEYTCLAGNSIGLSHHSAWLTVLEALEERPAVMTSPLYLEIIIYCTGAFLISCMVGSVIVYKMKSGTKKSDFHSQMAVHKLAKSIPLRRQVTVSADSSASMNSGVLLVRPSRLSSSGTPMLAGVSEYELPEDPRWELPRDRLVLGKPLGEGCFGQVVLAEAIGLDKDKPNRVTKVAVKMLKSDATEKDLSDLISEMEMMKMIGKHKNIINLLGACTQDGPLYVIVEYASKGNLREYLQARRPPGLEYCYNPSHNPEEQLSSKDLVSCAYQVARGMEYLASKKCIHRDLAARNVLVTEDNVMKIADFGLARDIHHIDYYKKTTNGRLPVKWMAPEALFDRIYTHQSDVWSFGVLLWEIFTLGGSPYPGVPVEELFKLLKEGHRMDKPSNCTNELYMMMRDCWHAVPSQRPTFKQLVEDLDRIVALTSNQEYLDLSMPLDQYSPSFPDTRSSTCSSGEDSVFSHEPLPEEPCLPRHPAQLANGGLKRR
T3 sequence (P09619 33-1106): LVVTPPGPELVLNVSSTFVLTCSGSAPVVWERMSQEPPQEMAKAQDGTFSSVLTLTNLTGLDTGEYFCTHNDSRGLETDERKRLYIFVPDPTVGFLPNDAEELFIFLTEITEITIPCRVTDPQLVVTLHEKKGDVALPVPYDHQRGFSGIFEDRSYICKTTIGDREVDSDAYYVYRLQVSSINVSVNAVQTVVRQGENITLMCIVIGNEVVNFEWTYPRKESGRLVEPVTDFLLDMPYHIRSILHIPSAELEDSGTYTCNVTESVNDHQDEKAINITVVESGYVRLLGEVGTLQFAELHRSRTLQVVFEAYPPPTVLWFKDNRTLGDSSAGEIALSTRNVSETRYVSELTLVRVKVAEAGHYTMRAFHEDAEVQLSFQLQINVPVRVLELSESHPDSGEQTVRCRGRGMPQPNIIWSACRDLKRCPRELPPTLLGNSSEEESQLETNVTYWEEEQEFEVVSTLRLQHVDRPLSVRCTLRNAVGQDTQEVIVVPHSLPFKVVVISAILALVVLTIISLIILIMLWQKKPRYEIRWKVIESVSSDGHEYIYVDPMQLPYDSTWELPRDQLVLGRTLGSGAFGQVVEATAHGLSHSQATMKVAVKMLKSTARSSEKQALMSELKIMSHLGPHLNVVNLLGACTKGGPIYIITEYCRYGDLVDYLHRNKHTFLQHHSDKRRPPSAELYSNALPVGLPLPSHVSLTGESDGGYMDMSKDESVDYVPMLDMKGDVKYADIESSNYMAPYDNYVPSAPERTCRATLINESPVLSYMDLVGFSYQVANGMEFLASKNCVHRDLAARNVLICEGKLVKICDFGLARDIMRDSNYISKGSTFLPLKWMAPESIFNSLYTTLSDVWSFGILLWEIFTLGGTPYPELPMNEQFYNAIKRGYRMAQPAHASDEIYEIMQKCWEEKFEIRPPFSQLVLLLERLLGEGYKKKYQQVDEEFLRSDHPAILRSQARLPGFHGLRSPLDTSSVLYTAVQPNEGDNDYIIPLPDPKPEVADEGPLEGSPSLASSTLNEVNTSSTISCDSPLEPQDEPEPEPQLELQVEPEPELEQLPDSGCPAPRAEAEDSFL
T1 sequence (P35968 20-1356): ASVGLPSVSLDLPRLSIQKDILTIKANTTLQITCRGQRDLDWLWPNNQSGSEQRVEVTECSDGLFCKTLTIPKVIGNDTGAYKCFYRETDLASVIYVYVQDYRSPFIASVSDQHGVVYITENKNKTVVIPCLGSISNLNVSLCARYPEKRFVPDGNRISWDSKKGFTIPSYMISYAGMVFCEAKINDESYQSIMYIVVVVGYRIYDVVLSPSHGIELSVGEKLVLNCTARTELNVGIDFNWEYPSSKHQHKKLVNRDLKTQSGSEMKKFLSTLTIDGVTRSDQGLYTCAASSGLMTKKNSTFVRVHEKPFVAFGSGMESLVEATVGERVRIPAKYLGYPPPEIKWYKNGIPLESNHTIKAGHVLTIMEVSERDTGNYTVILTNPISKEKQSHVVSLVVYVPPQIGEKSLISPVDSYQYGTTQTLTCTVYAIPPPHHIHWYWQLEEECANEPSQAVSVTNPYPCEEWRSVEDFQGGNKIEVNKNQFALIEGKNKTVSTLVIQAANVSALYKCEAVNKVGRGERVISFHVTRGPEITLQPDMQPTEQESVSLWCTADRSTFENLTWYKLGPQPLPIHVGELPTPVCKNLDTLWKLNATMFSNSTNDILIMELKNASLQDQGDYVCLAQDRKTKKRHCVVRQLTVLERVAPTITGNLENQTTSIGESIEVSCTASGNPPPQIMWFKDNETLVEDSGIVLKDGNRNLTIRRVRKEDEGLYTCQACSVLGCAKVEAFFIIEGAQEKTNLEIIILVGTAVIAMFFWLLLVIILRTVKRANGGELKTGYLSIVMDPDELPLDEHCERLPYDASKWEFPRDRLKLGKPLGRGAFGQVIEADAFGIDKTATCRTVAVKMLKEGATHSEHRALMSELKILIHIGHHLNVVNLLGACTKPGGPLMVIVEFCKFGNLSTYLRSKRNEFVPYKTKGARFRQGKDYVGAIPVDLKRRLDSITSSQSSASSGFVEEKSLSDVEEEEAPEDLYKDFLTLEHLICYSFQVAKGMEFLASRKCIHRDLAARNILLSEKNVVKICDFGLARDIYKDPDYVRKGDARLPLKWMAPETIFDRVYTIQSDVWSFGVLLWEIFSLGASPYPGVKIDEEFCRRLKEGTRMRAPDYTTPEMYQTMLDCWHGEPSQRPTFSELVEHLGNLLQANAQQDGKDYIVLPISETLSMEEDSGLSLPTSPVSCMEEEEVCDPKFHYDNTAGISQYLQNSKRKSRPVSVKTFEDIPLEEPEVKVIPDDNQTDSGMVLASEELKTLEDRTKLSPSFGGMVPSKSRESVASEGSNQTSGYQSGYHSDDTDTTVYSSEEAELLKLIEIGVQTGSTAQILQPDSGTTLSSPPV

As for `COc1cc2nccc(Oc3cc(Cl)c4c(C(=O)N5CCCC5)coc4c3)c2cc1C(N)=O` [Example 194], the 50% inhibitory concentration (IC50) in test [1], in test [2] and in test [3] was 200 to 1000 nM each time.

Consider `COc1cc2nccc(Oc3ccc(NC(=S)N4CC(C)(O)C4)c(Cl)c3)c2cc1C(N)=O` [Example 85], for which the 50% inhibitory concentration (IC50) in test [1], in test [2] and in test [3] was 200 to 1000 nM each time.

With `COc1cc2ncc(Cl)c(Oc3ccc(NC(=S)N4CC(F)(F)C4)c(Cl)c3)c2cc1C(N)=O` [Example 89], the IC50 in test [1], in test [2] and in test [3] was 200 to 1000 nM throughout.

Turning to `COc1cc2nccc(Oc3ccc(N4CCNC4=O)c(Cl)c3)c2cc1C(N)=O` [Example 165], the IC50 in test [1], in test [2] and in test [3] was 200 to 1000 nM each time.

For the compound `COc1cc2nccc(Oc3ccc4c(c3)CCCN4C(=S)NC3CC3)c2cc1C(N)=O` [Example 26], the results for the IC50 in test [1], in test [2] and in test [3] were 50 to 200 nM, 200 to 1000 nM and 200 to 1000 nM, respectively.

`COc1cc2nccc(Oc3cc4occ(C(=O)N5CCCC5)c4cc3Cl)c2cc1C(N)=O` [Example 197]: the concentration for half-maximal inhibition (IC50) in test [1], in test [2] and in test [3] was 200 to 1000 nM each time.

For the compound `Cn1cncc1-c1ccc2c(Oc3ccc(NC(=S)NC4CC4)c(Cl)c3)ccnc2c1` [Example 213], the results for the half-inhibitory concentration (IC50) in test [1], in test [2] and in test [3] were below 50 nM, 50 to 200 nM and 50 to 200 nM, respectively.

Consider `COCCNC(=O)c1cc2c(Oc3ccc(NC(=S)NC4CC4)c(Cl)c3)ccnc2cc1OC` [Example 62], for which the IC50 in test [1] was 50 to 200 nM; in test [2], 200 to 1000 nM; in test [3], 200 to 1000 nM.

For `COc1cc2nccc(Oc3ccc(NC(=S)Nc4ccc(F)cc4)c(Cl)c3)c2cc1C(N)=O` [Example 64], the half-inhibitory concentration (IC50) in test [1] is 50 to 200 nM; in test [2], 200 to 1000 nM; in test [3], below 50 nM.

For the compound `COc1cc2nccc(Oc3ccc(NC(=O)N4CC(F)(F)C4)c(Cl)c3F)c2cc1C(N)=O` [Example 119], the IC50 in test [1] is 50 to 200 nM; in test [2] it was 200 to 1000 nM; in test [3] it was below 50 nM.

As for `CCN(CC)CCCNC(=O)c1cc2c(Oc3ccc(NC(=S)NC4CC4)c(Cl)c3)ccnc2cc1OC` [Example 40], the 50% inhibitory concentration (IC50) lay within 50 to 200 nM in test [1], 200 to 1000 nM in test [2] and 50 to 200 nM in test [3].

`COc1cc(Oc2ccnc3cc(OC)c(C(N)=O)cc23)ccc1NC(=S)NC1CC1` [Example 72]: the IC50 in test [1] lay in the range of 50 to 200 nM; in test [2], 200 to 1000 nM; in test [3], 50 to 200 nM.

Regarding `COc1cc2nccc(Oc3ccc(NC(=S)NC4CC4)c(Cl)c3)c2cc1C(C)(C)O` [Example 175], the IC50 in test [1], in test [2] and in test [3] was 200 to 1000 nM each time.

`COc1cc2nccc(Oc3ccc(NC(=S)NC4CC4)c(Cl)c3)c2cc1C(=O)N(C)C` [Example 47]: the 50% inhibitory concentration (IC50) in test [1], in test [2] and in test [3] was 200 to 1000 nM each time.

For `COc1cc2nccc(Oc3ccc(NC(=O)N4CC[C@H](F)C4)c(Cl)c3F)c2cc1C(N)=O` [Example 117], the 50% inhibitory concentration (IC50) in test [1] lay in the range of 50 to 200 nM; in test [2], 200 to 1000 nM; in test [3], 50 to 200 nM.

In the case of `COc1cc2nccc(Oc3cc(F)c(NC(=S)NC4CC4)c(F)c3)c2cc1C(N)=O` [Example 83], the IC50 in test [1] lay in the range of 50 to 200 nM; in test [2] it was 200 to 1000 nM; in test [3] it was 50 to 200 nM.

With `COc1cc2nccc(Oc3ccc(NC(=S)NC4CC4)c(Cl)c3)c2cc1C(=O)N1CCCCC1` [Example 49], the IC50 in test [1] was 200 to 1000 nM; in test [2] it was 200 to 1000 nM; in test [3] it was 50 to 200 nM.

For the compound `COc1cc2nccc(Oc3ccc(CC(=O)N4CCCC4)cc3)c2cc1C(N)=O` [Example 176], the concentration for half-maximal inhibition (IC50) in test [1], in test [2] and in test [3] was 200 to 1000 nM throughout.

With `COc1cc2nccc(Oc3ccc(NC(=S)NC4(C(F)(F)F)CC4)c(Cl)c3)c2cc1C(N)=O` [Example 76], the half-inhibitory concentration (IC50) in test [1], in test [2] and in test [3] was 200 to 1000 nM each time.

Turning to `COc1cc2nccc(Oc3ccc(NC(=S)NC4CC4)nc3)c2cc1C(N)=O` [Example 43], the half-inhibitory concentration (IC50) in test [1] is 200 to 1000 nM; in test [2], 200 to 1000 nM; in test [3] it was below 50 nM.

Take `COc1cc2nccc(Oc3ccc(NC(=S)N4CC[C@@H](O)C4)c(Cl)c3F)c2cc1C(N)=O` [Example 111]: the 50% inhibitory concentration (IC50) in test [1] was in the range of 50 to 200 nM; in test [2], 50 to 200 nM; in test [3] it was 200 to 1000 nM.

On to `COc1cc2nccc(Oc3ccc(NC(=O)N4CC[C@@H](O)C4)c(Cl)c3F)c2cc1C(N)=O` [Example 115], for which the IC50 in test [1], in test [2] and in test [3] was 200 to 1000 nM each time.

Take `COc1cc2nccc(Oc3ccc(NC(=S)NC4CC4)c(Cl)c3)c2cc1C(=O)NCC(F)F` [Example 37]: the IC50 is below 50 nM in test [1], 200 to 1000 nM in test [2] and 50 to 200 nM in test [3].

On to `COc1cc2nccc(Oc3ccc(Nc4c(NCc5cccnc5)c(=O)c4=O)c(Cl)c3)c2cc1C(N)=O` [Example 149], for which the IC50 in test [1], in test [2] and in test [3] was 200 to 1000 nM in each case.

Consider `COc1cc2nccc(Oc3ccc(NC(=S)N[C@@H](C)CO)c(Cl)c3)c2cc1C(N)=O` [Example 22], for which the values for the IC50 in test [1], in test [2] and in test [3] were 50 to 200 nM, 200 to 1000 nM and 50 to 200 nM, respectively.

As to `COc1ccc2c(Oc3ccc(NC(=S)N4CC(F)(F)C4)c(Cl)c3)ccnc2c1` [Example 171], the IC50 in test [1], in test [2] and in test [3] was 200 to 1000 nM each time.

Turning to `COc1cc2nccc(Oc3ccc(Nc4c(NCCC#N)c(=O)c4=O)c(Cl)c3)c2cc1C(N)=O` [Example 137], the IC50 in test [1], in test [2] and in test [3] was 200 to 1000 nM each time.

Turning to `[2H]C([2H])([2H])NC(=O)c1coc2cc(Oc3ccnc4cc(OC)c(C(N)=O)cc34)c(Cl)cc12` [Example 211], the IC50 is 50 to 200 nM in test [1], 200 to 1000 nM in test [2] and below 50 nM in test [3].

Turning to `COc1cc2nccc(Oc3cc(Cl)c(NC(=S)NC4CC4)cc3F)c2cc1C(N)=O` [Example 77], the IC50 was below 50 nM in test [1], 200 to 1000 nM in test [2] and 50 to 200 nM in test [3].

Take `C#CCNC(=S)Nc1ccc(Oc2ccnc3cc(OC)c(C(N)=O)cc23)cc1Cl` [Example 92]: the 50% inhibitory concentration (IC50) in test [1] fell in the range of 50 to 200 nM; in test [2] it was 200 to 1000 nM; in test [3], 50 to 200 nM.

Regarding `COc1cc2nccc(Oc3ccc(NC(=S)NC4CCOC4=O)c(Cl)c3)c2cc1C(N)=O` (stereo not drawn) [Example 93], the concentration for half-maximal inhibition (IC50) in test [1], in test [2] and in test [3] was 200 to 1000 nM throughout.

As for `COCCCNc1c(Nc2ccc(Oc3ccnc4cc(OC)c(C(N)=O)cc34)cc2Cl)c(=O)c1=O` [Example 141], the IC50 in test [1], in test [2] and in test [3] was 200 to 1000 nM in each case.

As for `COc1cc2nccc(Oc3ccc(NC(=S)Nc4cccc(C(F)(F)F)c4)c(Cl)c3)c2cc1C(N)=O` [Example 7], the IC50 in test [1] was 50 to 200 nM; in test [2], 200 to 1000 nM; in test [3], 200 to 1000 nM.
